Measurements taken from BindingDB's records for doi:10.1016/j.bmcl.2007.07.104 (Glaxosmithkline, 2007).

Target: Proto-oncogene tyrosine-protein kinase receptor Ret (Homo sapiens, UniProt P07949)
Assay: RET Kinase Inhibition Assay
Conditions: pH 7.4; 22 °C

Chain of Proto-oncogene tyrosine-protein kinase receptor Ret (P07949 whole entry): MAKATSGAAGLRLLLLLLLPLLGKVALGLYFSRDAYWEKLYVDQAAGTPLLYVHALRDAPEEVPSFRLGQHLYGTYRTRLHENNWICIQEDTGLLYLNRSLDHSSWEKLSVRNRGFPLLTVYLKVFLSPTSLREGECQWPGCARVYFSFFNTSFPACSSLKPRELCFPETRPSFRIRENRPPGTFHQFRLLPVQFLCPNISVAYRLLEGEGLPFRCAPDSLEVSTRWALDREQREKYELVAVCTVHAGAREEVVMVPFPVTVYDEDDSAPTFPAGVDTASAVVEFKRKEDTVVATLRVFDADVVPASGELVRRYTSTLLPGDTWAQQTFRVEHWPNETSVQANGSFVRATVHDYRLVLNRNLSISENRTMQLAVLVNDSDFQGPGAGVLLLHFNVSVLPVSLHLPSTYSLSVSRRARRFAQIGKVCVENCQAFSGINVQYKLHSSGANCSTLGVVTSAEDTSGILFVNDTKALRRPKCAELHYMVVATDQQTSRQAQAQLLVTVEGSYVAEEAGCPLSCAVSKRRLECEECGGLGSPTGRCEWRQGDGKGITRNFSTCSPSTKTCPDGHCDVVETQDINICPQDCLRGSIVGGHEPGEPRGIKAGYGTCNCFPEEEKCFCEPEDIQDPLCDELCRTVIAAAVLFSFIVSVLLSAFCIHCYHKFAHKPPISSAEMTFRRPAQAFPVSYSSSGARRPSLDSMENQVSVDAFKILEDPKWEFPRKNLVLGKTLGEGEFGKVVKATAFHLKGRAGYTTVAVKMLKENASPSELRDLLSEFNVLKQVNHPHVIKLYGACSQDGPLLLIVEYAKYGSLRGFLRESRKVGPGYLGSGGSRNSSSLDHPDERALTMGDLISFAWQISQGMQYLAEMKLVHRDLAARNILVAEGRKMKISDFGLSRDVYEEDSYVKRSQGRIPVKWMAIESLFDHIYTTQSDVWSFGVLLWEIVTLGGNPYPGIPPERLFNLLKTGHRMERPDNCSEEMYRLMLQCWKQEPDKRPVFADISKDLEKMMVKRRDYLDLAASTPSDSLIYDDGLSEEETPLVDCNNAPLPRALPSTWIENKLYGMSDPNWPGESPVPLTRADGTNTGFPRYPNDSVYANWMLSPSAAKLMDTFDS

- IC50: > 1 µM
SMILES: Cc1ccc(O)cc1Nc1cc(C(F)(F)F)nc2ccc(-c3ccncc3)cc12 [4-methyl-3-{[6-(pyridin-4-yl)-2-(trifluoromethyl)quinolin-4-yl]amino}phenol]
